Results published in patent US6649797B2, “Compounds and methods of use to treat infectious diseases” (The Picower Institute for Medical Research, priority 1996, dated 2003).
Read-outs that look alike come from different tables or passages of the source.

Legend:
HIV-1 [1] = test: HIV-1 production in cultured monocytes at fixed 100 nM; type: cell-based; conditions: monocytes infected 10 days prior to assay (10 ng p24/10^6 cells), percentage of untreated control
Experimental: Alternatively, the compounds may all be compared for inhibition of HIV replication at a fixed concentration. Presented in Table II are compounds that were used at a concentration of 100 nM to inhibit the production of HIV-1 in cultured monocytes infected with HIV-1 10 days prior to assay (10 ng of p24/10^6 cells). The production of HIV-1 in each treated culture is reported as percentage of untreated control.

HIV-1 [2] = test: AZT and Compound No. 2 in combination, HIV-1 infected monocyte cultures, RT activity; type: cell-based; conditions: for reverse transcriptase activity in supernatant: (−) No. 2
Experimental: Primary human monocytes were obtained from peripheral blood by Ficoll-Hypaque centrifugation and adherence to plastic as described previously. Gartner S. P., et al., 1986, Science 233:215. Briefly, after Ficoll-Hypaque (Pharmacia) separation, PBMCs were washed 4 times with DMEM (the last wash was done at 800 rpm to remove platelets) and resuspended in monocyte culture medium [DMEM supplemented with 1 mM glutamine, 10% heat-inactivated human serum, 1% penicillin+streptomycin mixture (Sigma)] at a density of 6×10^6 cells/ml. Cells were seeded in 24-well plates (1 ml per well) and incubated for 2 h at 37° C, 5% CO2. Following incubation, cells were washed 3 times with DMEM to remove non-adherent cells and incubation was continued in monocyte culture medium supplemented with 250 U/ml human M-CSF (Sigma). Cells were allowed to mature for 7 days prior to infection with the monocyte-tropic strain, HIV-1ADA. Nuovo, G. J., et al., 1992, Diagn. Mol. Pathol. 1:98. Two hours after infection, cells were washed with medium and cultured in RPMI supplemented with 10% human serum. In experiments where PCR analysis was performed, virus was pretreated with RNAse-free DNAse (Boehinger-Mannheim) for 2 h at room temperature and then filtered though a 0.2 μm pore nitrocellulose filter prior to infection.
For the reverse transcriptase (RT) assay, 10 μl of culture supernatant was added to 40 μl of reaction mixture (final composition was 50 mM Tris-HCl, pH 7.8; 20 MM KCl; 5 MM MgCl2; 1 mM DTT; 0.1% Triton X-100; 0.2 OD/ml polyA; 0.2 OD/ml oligo(dT)12-18; and 40 μCi/ml ^3H-dTTP (76 Ci/mmol, DuPont) and incubated 2 hr at 37° C. 5 μl of the reaction mixture was then spotted onto the DE 81 (Whatman) paper. Paper was air dried and washed 5 times with 5% Na2HPO4, followed by rinsing with distilled water. After air drying, paper was put on a Flexi Filter plate (Packard), covered with scintillation fluid and counted in a Top Count Microplate Counter (Packard). Results are expressed as counts per minute in 1 ml of supernatant (cpm/ml).
In view of these premises, the effects on HIV-1 replication in human monocyte cultures of the various concentrations of AZT, alone or in combination with 100 nM Compound No. 2, were tested using the protocols of Sections 6.2.1 and 6.2.2. Drugs were added to the monocyte cultures together with HIV-1 at about 10^5 TCID/ml. The concentration of drugs was maintained on refeeding. HIV-1 replication was assessed by assay of the supernatant for reverse transcriptase activity. The results are expressed as mean ± std. dev. (cpm×10^−3) in Table V.

Plasmodium falciparum = test: Antimalarial activity in vitro, [3H]-hypoxanthine incorporation; type: cell-based; conditions: for IC50: Plasmodium falciparum
Description: The antimalarial properties of the compounds of the invention can be analyzed by techniques, assays and experimental animal models well known in the art. For example, the inhibition of growth of Plasmodium falciparum in vitro by the compounds may be assessed by the hypoxanthine-incorporation method (Desjardins et al., 1979, Antimicrob. Ag. Chemother. 16:710-718). […] The in vivo efficacy of the compounds can also be tested in mouse models in which parasitemia is enumerated following administration of the compound (Ager, A. L. 1984, Rodent malaria models, pp 225-264. In Handbook of Experimental Pharmacology vol. 68, Antimalarial Drugs, Peters and Richards eds, Springer-Verlag, Berlin).
The antimalarial activity of the compounds was determined essentially as described in Desjardins et al. supra. Fifty μl of various concentrations of a compound of the invention, chloroquine, or pyrimethamine were added to the wells of microtiter plates, followed by 200 μl of ring-stage, synchronized, P. falciparum-infected erythrocytes (final hematocrit=1.5%, final parasitemia=1-5%). The plates were incubated for 24 hr in a candle jar kept at 37° C., and then 25 μl of [^3H]-hypoxanthine (Amersham, Arlington Heights, ILL.; 2.5 μl Ci/well) was added. The plates were then incubated for a further 24 hr, before harvesting onto Unifilter-96 GF/C filter-microplates (Packard; Meriden, Conn.). Twenty-five μl of Microscint scintillation fluid (Packard) was added to each well of the filter-microplate, which was subsequently counted in a Top-count microplate scintillation counter (Packard). The percent of [^3H]-hypoxanthine uptake relative to control infect-erythrocytes was used to determine the IC50 value for the compounds by non-linear regression for LD50 determination.

[3] = In vitro metabolism with mouse liver post-mitochondrial supernatant and NADPH; type: in vitro ADME
Experimental: Several female ND4 Swiss Webster mice were euthanized by carbon dioxide inhalation and the livers excised and rinsed with ice cold phosphate buffered saline (pH 7.4). The livers were minced, gently homogenized in 50 mM phosphate buffer (pH 7.4) with a Dounce homogenizer, and centrifuged at 9600× g for 20 min. The post-mitochondrial supernatant was kept, glycerol added to 20%, and frozen at −70° C in 1.0 ml aliquots until used. For each incubation, 1.0 ml of a 1.0 mg/ml drug solution was added to 3.0 ml of 50 mM phosphate buffer (pH 7.4), 1.0 ml of 2 mg/ml NADPH in 50 mM phosphate (pH 7.4), and 1.0 ml of the post-mitochondrial supernatant. Five hundred μl of each incubate was then immediately transferred to an ice-cold tube to provide the zero-time sample, and addition 500 μl aliquots removed to ice-cold tubes at 8, 15, 30, and 60 min. The samples were then extracted, and analyzed by HPLC as described in section 7.1. Control incubations were also performed where drug or post-10 mitochondrial supernatant was omitted. […] Peaks in the CNI compound incubations which increased over time, and were not present in control samples lacking the enzyme preparation were treated as putative metabolites.

[4] = Toxicity in mice, median lethal dose by intraperitoneal injection; type: in vivo, mouse; conditions: for LD50: mouse, in vivo, ip, read-out: LD50 ± standard deviation
Experimental: The doses of compounds of the invention found to be lethal to 50% of the mice (LD50) were determined by intraperitoneal injection of groups of five animals with increasing doses of each compound. CNI-0294 was administered from 0, 2, 10, 20, 40, 80, 160, 320, 640, 1280 mg/kg in 0.5 ml of water/HCl; CNI-1594 at 0, 2.4, 5, 10, 20, 40, 80 mg/kg in 0.5 ml of water/HCl; CNI-1794 at 0, 20, 50, 80 mg/kg in 0.5 ml of water/HCl; and CNI-1894 at 0, 10, 20, 40, 80, 240, 480, 960 mg/kg in water/HCl. […] The percentage of animals in each group which died were utilized to calculate the LD50 by non-linear curve fitting with the Enzfit software (Elsevier Bioscience; Cambridge, UK) programmed with the Chou equation (Chou 1976, J Theor Biol 39:253-276)).

[5] = Pharmacokinetics in mice (plasma, HPLC); type: in vivo, mouse
Experimental: Standard addition curves for each test compound were constructed by adding increased amounts of drug to mouse or human A^+ plasma (Long Island Blood Services; Melville, N.Y). […] The column was washed with 1.0 ml of water and then eluted with 1.0 ml of 10 mM tetramethylammonium chloride/10 mM heptane sulfonate/4.2 mM H3PO4/95% CH3CN/5% H2O (Buffer C). The eluted sample was reduced to dryness in a rotary evaporator and resuspended in 1.0 ml Buffer A.
Two hundred μl of the resuspended sample was injected onto a Hewlett-Packard model 1090 high performance liquid chromatography system (HPLC)(Wilmington, Del.) equipped with a photodiode array ultraviolet/visible spectrophotometric detector, autosampler, and Chemstation operating software. The column used was a 250×4.6 mm Zorbax RX-C8 column (Mac-Mod Analyticals; Chadd's Ford, Pa.) kept at room temperature and run at 1.5 ml/min. The mobile phase used was Buffer A and 10 mM tetramethylammonium chloride/10 mM heptane sulfonate/4.2 mM H3PO4/75% CH3CN/25% H2O (Buffer B), with all runs initiated at 10% Buffer B. A linear 30 min gradient to 60% Buffer B was then performed, followed by a 4 min reverse gradient to initial conditions.
Female ND4 Swiss Webster mice (21-24 g) were obtained from Harlan Sprague Dawley (Indianapolis, Ind.) and randomly placed in groups of five in cages with free access to food and water. […] The other CNI compounds were administered intraperitoneally or by oral gavage as a solution in water titrated with sufficient HCl to dissolve the drug. At various time points, ranging from 5 min to 4 days, a single group of animals was euthanized by carbon dioxide inhalation and bled by cardiac puncture using heparin as an anticoagulant. The blood from the five mice in the group was pooled and centrifuged at 14000× g for 10 min. The volume of plasma was measured, and equal volume of Buffer A added, and the mixture extracted and analyzed as described above, except that the dried eluates were resuspended in 200 μl Buffer A and 100 μl was injected onto the high performance liquid chromatography (HPLC) system.
The area under the plasma concentration-time curve (AUC) was determined, and bioavailability was measured as AUCoral/AUCi.p. A and B represent the zero time intercept of the distribution and elimination phases respectively, and a and β the respective slopes of the phases multiplied by 2.303. The t/2α and t1/2β are calculated half-lives of the drug in each phase (0.693/α and 0.693/β respectively). The volume of distribution (VD) was calculated as dose/B, and the total clearance rate (Cltot) calculated as β*VD. Cmax and tmax are the maximal plasma concentration and time of this measurement, respectively.

HIV-1ADA = test: Anti-HIV activity in primary human monocytes, day 9 (Table IX, FIG. 12C); type: cell-based; conditions: Human immunodeficiency virus 1, Monocyte, 216 h; day 9 after infection; >10 μM = 50% inhibition not achieved at maximal concentration; read-out: IC50
Experimental: Monocytes infected with HIV-1ADA were cultured in the presence of CNI-H0294 and CNI-H3094 in various concentrations. Nine days after infection, RT activity in culture supernatants was quantified. The results are presented as percent of total RT activity in untreated cultures (control). Three independent samples were assayed for each drug concentration, and the standard deviation was less than 15%.
[…] A 50% inhibitory concentration (IC50) was determined at day 9 after infection.

[6] = female, ND4 Swiss Webster, mouse, plasma, ip, 50 mg/kg, vehicle water
[7] = mouse, i.p., 50 mg/kg, vehicle water

For CC(=O)c1cccc(C(C)=O)c1N [2,6-diacetylaniline], the “Viral Production” value (HIV-1 [1]) was 28%.
In the case of CC(=O)c1cncc(C(C)=O)c1 [3,5-diacetylpyridine], the “Viral Production” value (HIV-1 [1]) is reported as 58%.
For Cc1cn([C@H]2C[C@H](N=[N+]=[N-])[C@@H](CO)O2)c(=O)[nH]c1=O [AZT], the “reverse transcriptase activity in supernatant” value (“reverse transcriptase activity” for short) (HIV-1 [2]; day-7, 10 pM AZT, mean ± std. dev.) was 0.92 ± 0.21 cpm×10^−3, the “reverse transcriptase activity” value (HIV-1 [2]; day-7, 100 pM AZT) was 0.79 ± 0.14 cpm×10^−3 and the “reverse transcriptase activity” value (HIV-1 [2]; day-7, 1 nM AZT) was 0.60 ± 0.28 cpm×10^−3. The “reverse transcriptase activity” value (HIV-1 [2]; day-7, 10 nM AZT) was 0.05 ± 0.02 cpm×10^−3, the “reduction in RT activity” value (HIV-1 [2]; day-11, 10 pM AZT alone) was “about 20%” and the “reverse transcriptase activity” value (HIV-1 [2]; day-11, 10 pM AZT) was 1.63 ± 0.81 cpm×10^−3. The “reverse transcriptase activity” value (HIV-1 [2]; day-11, 100 pM AZT) was 1.34 ± 0.59 cpm×10^−3, the “reverse transcriptase activity” value (HIV-1 [2]; day-11, 1 nM AZT) was 1.07 ± 0.49 cpm×10^−3 and the “reverse transcriptase activity” value (HIV-1 [2]; day-11, 10 nM AZT) was 0.08 ± 0.03 cpm×10^−3.
With CC(=O)c1cc(N)cc(C(C)=O)c1 [CNI-1894, 3,5-diacetylaniline] the “Viral Production” value (HIV-1 [1]) was 20%, the antimalarial activity (Plasmodium falciparum; clone Dd2, highest concentration tested 200 μM) was “inactive at the highest concentration tested” and the metabolites produced [3] was “one minor and one major metabolite”. The “metabolic conversion (drug altered, as judged by peak area)” value ([3]; 60 min incubation) was 17.28%, the “visible signs of toxicity” value [4] was “died 2-3 days post injection, and showed no sign of any immediate toxicity” and the LD50 [4] was 258.6 ± 1.37 mg/kg. For the same compound, the AUC [5, 6] was 20200 ng·h/mL, the Cmax [5, 6] was 13400 ng/mL and the Tmax ([5]; female, ND4 Swiss Webster, plasma, ip, mouse, i.p., 50 mg/kg, vehicle water, read-out: tmax (converted)) was 5 min. The maximal plasma level ([5]; mice, single i.p. injection (50 mg/kg; CNI-1594 20 mg/kg)) was 13.43 µg/mL, the “A (zero time intercept of the distribution phase)” value [5, 7] was 14.93 µg/mL and the “B (zero time intercept of the elimination phase)” value [5, 7] was 0.15 µg/mL. For the same compound, the Cltot [5, 7] was 3.30 mL/min, the t1/2α [5, 7] was 34.8 min and the t1/2β [5, 7] was 1386 min. The α [5, 7] was 1.19 h⁻¹, the β [5, 7] was 0.03 h⁻¹ and the IC50 (HIV-1ADA) was greater than 10000 nM.
CCN(CC)CCCC(C)Nc1ccnc2cc(Cl)ccc12 (centres unmarked) [Chloroquine] showed an IC50 (Plasmodium falciparum; DD2, clone Dd2, Chloroquine column, unit inferred) of 123 ± 7.26 nM, an IC50 (Plasmodium falciparum; FCR3, clone FCR-3, Chloroquine column, unit inferred) of 105 ± 9.98 nM and an IC50 (Plasmodium falciparum; HB3, clone HB3, Chloroquine column, unit inferred) of 6.73 ± 0.16 nM. For the same compound, the IC50 (Plasmodium falciparum; clone D10, Chloroquine column, unit inferred) was 27 ± 2.42 nM and the IC50 (Plasmodium falciparum; clone W2mef, Chloroquine column, unit inferred) was 144 ± 13.3 nM.
Compound CC(=O)c1ccc(Nc2cc(C)nc(N)n2)cc1 [Compound No. 17, 2-amino-4-(4-acetylphenyl)amino-6-methylpyrimidine] has an LD50 [4] of 48.93 ± 0.12 mg/kg.
With CC(=O)c1cc(C(C)=O)cc(N(C)C)c1 [N,N-dimethyl-3,5-diacetylaniline] the “Viral Production” value (HIV-1 [1]) was 25%.
In the case of CCc1nc(N)nc(N)c1-c1ccc(Cl)cc1 [Pyrimethamine], the IC50 (Plasmodium falciparum; DD2, clone Dd2, ± standard deviation, read-out: IC50) is reported as 104000 ± 9790 nM and the IC50 (Plasmodium falciparum; clone W2mef, ± standard deviation, read-out: IC50) is reported as 17800 ± 13500 nM.
